From patent EP1082963A1, “REMEDIES FOR JOINT DISEASES BOUND TO HYALURONIC ACID” (CHUGAI SEIYAKU KABUSHIKI KAISHA, priority 1998, dated 1999)

Molecular target: gelatinase B (Homo sapiens, UniProt P14780)
Test: Gelatinase B inhibiting activity of synovial fluid recovered after intraarticular administration
Format: in vivo, rats
Design: purchased Roche Diagnostics Co., Ltd
Settings: Fig. 7
Experimental: The following agents (1 to 3) were administered into right knee joints of 9-10 week old rats (n=4 to 10) and the animals were sacrificed at time intervals; the joint cavities were washed with a total 0.5 ml of a physiological saline to recover a synovial fluid. • Agent 1: 30 nmol of compound 1 • Agent 2: a mixture of 30 nmol of compound 1 and 0.3 mg of HA • Agent 3: 0.3 mg of "conjugate 4" (having compound 1 bound in an amount equivalent to 30 nmol)
By using a kit for measuring gelatinase activity manufactured by Roche Diagnostics, the inhibiting activity of the synovial fluid against gelatinase B was calculated according to the following formula. Gelatinase B Inhibition Activity (%) = [(Enzymatic Activity in the Absence of Synovial Fluid - Enzymatic Activity in the Presence of Added Synovial Fluid)/Enzymatic Activity in the Absence of Synovial Fluid] x 100 [formula]
The results were shown by a mean value ± standard deviation. The gelatinase B inhibiting activity of the synovial fluid from the group administered compound 1 alone and the group administered the mixture of compound 1 and HA decreased to 20% two hours after administration and to less than 5% 17 hours after administration while in the group administered "conjugate 4" about 50% of the gelatinase B inhibiting activity remained 17 hours after administration.

Chain of gelatinase B (P14780 94-707, species assumed): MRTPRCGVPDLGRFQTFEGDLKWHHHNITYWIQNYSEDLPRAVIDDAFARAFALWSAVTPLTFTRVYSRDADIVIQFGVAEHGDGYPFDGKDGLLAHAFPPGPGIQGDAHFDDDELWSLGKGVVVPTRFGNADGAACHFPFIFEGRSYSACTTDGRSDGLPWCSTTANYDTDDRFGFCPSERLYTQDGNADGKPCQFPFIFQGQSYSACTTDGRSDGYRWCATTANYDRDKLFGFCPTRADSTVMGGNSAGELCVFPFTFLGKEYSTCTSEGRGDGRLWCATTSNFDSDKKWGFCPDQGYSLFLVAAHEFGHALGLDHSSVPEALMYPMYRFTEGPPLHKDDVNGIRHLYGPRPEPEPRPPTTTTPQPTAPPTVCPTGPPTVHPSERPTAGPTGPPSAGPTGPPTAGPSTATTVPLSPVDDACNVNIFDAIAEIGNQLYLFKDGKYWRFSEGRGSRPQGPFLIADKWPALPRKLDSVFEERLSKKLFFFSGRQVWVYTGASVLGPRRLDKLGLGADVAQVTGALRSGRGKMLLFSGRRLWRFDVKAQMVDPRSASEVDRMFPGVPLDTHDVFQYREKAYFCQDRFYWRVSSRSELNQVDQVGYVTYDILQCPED

CNC(=O)[C@H](Cc1c[nH]c2ccccc12)NC(=O)C(CC(=O)NO)CC(C)C (stereo partly drawn) [compound 1, N-[2-isobutyl-3-(N'-hydroxycarbonylamido)propanoyl]-L-tryptophan methylamide]
gelatinase B inhibiting activity of the synovial fluid (17 hours after administration into rat right knee joint): less than 5% | gelatinase B inhibiting activity of the synovial fluid (two hours after administration into rat right knee joint): 20%
